Laboratory results: paper PMC12627232 (MedComm, 2025)

Assays:
HeLa nuclear extract = experiment: HDAC inhibition, HeLa nuclear extract; format: biochemical
Method: HDACs enzymatic assays were conducted according to our previous work. In detail, the HeLa nuclear extract, HDAC1 (BPS BIOSCIENCE INC, 50051), HDAC2 (BPS BIOSCIENCE Inc; 50052), HDAC3/NCOR1 complex (BPS BIOSCIENCE Inc; 50003), HDAC4 (BPS BIOSCIENCE Inc; 50004), HDAC5 (BPS BIOSCIENCE Inc; 50005), HDAC6 (BPS BIOSCIENCE Inc; 50006), HDAC7 (BPS BIOSCIENCE Inc; 50007), HDAC8 (BPS BIOSCIENCE Inc; 50008), HDAC9 (BPS BIOSCIENCE Inc; 50009), HDAC10 (BPS BIOSCIENCE Inc; 50010), or HDAC11 (BPS BIOSCIENCE Inc; 50011) was diluted to the proper concentrations according to the relative enzymatic activity and the linear range of the plate reader and mixed with different concentrations of drugs. Substrates (Boc‐Lys(acetyl)‐AMC for HeLa nuclear extract, Ac‐Leu‐Gly‐Lys (Tfa)‐AMC for HDAC4, HDAC5, HDAC6, HDAC7, HDAC9, HDAC10, and HDAC11, Boc‐Lys(triflouroacetyl)‐AMC for HDAC8 and Ac‐Leu‐Gly‐Lys(acetyl)‐AMC for HDAC1, HDAC2, HDAC3) were added to the mixture. The blank group was set to no enzyme or drug but contains substrates and the control group was set to no drug but contains substrates and enzymes to each 96‐well plate. After 30 min of incubation at 37°C, the mixture was terminated with 1 mg/mL trypsin and 3 µM TSA. After another 30 min, the fluorescence intensity was measured using a Varioskan plate reader at 360/460 nm. […] The inhibition curves and IC50 values were simulated and calculated using the log(inhibitor) versus response (three parameters) mode in GraphPad Prism software.

HDAC11 = target: T1, HDAC11 (Homo sapiens, UniProt Q96DB2); experiment: HDACs enzymatic assay HDAC11; format: biochemical; settings: Class IV
T1 construct: purchased BPS BIOSCIENCE Inc 50011
T1 sequence (Q96DB2 whole entry): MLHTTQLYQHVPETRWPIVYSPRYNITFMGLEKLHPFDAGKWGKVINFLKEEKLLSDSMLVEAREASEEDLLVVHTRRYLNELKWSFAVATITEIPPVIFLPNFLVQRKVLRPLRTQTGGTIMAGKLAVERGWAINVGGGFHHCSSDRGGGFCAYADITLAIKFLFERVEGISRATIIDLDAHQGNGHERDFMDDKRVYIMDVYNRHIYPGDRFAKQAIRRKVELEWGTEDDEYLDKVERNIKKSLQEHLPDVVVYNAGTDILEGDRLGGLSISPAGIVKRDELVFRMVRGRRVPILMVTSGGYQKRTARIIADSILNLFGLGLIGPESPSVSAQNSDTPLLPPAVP
Method: HDACs enzymatic assays were conducted according to our previous work. […] Substrates (Boc‐Lys(acetyl)‐AMC for HeLa nuclear extract, Ac‐Leu‐Gly‐Lys (Tfa)‐AMC for HDAC4, HDAC5, HDAC6, HDAC7, HDAC9, HDAC10, and HDAC11, Boc‐Lys(triflouroacetyl)‐AMC for HDAC8 and Ac‐Leu‐Gly‐Lys(acetyl)‐AMC for HDAC1, HDAC2, HDAC3) were added to the mixture. The blank group was set to no enzyme or drug but contains substrates and the control group was set to no drug but contains substrates and enzymes to each 96‐well plate. After 30 min of incubation at 37°C, the mixture was terminated with 1 mg/mL trypsin and 3 µM TSA. After another 30 min, the fluorescence intensity was measured using a Varioskan plate reader at 360/460 nm. […] The inhibition curves and IC50 values were simulated and calculated using the log(inhibitor) versus response (three parameters) mode in GraphPad Prism software.

AGS = experiment: CCK-8 antiproliferation assay; format: cell-based; settings: Homo sapiens, 48 h treatment
Method: (§1) Cell lines purchased from the Cell Bank of Type Culture Collection of the Chinese Academy of Sciences (Shanghai, China) were passaged after resuscitation. […] The third to tenth passages of cells were used for experiments. […] After incubation, 20 µL CCK‐8 solution (MeilunBio) was added. Two hours later, absorption was measured by a Varioskan plate at 450 nm. Inhibition curves and IC50 values were simulated and calculated using the log(inhibitor) versus response (three parameters) mode via GraphPad Prism software.

HL-60 = experiment: CCK-8 antiproliferation assay; format: cell-based; settings: Homo sapiens, 48 h treatment
Method: as §1

Jurkat = experiment: CCK-8 antiproliferation assay; format: cell-based; settings: Homo sapiens, 48 h treatment
Method: as §1

KM3 = experiment: CCK-8 antiproliferation assay; format: cell-based; settings: Homo sapiens, 48 h treatment
Method: as §1

MCF-7 = experiment: CCK-8 antiproliferation assay; format: cell-based; settings: Homo sapiens, MCF7, 48 h treatment
Method: as §1

NCI-H929 = experiment: CCK-8 antiproliferation assay; format: cell-based; settings: Homo sapiens, 48 h treatment
Method: as §1

PC-3 = experiment: CCK-8 antiproliferation assay; format: cell-based; settings: Homo sapiens, 48 h treatment
Method: as §1

RPMI-8226 = experiment: CCK-8 antiproliferation assay; format: cell-based; settings: Homo sapiens, 48 h treatment
Method: as §1

[1] = In vitro metabolic assay, mouse liver microsomes; format: in vitro ADME
Method: Compounds were prepared in a working solution of 2 mg/mL with methanol. […]; Research Institute for Liver Disease (Shanghai) Co., Ltd) were mixed with NADPH (the final concentration is 4 mM), MgCl2 (the final concentration is 6 mM), and shaken at 37°C for 5 min. Then, compound solutions were added to the system and incubated for 0, 10, 20, 30, 60, 90, and 120 min at 37°C under shaking conditions. The mixture was quenched with cold acetonitrile and analyzed with a Shimadzu LC‐20AT system and a C18‐silica column (Thermo; 4.6 × 250 mm, 5 µm).

MDA-MB-231 cells = experiment: Immunofluorescence of ac-H3; format: cell-based, human; settings: 1 µM, 24 h
Method: Cells (10^5 cells per plate) were seeded in confocal dishes and incubated with drugs or DMSO (equal volume to experimental groups) for 24 h. The medium was removed, and cells were fixed with 4% polyoxymethylene solution for 30 min. The cells were treated with 0.2% Triton X‐100 for 10 min and 1% BSA for 1 h at room temperature. After that, cells were washed twice with TBST and incubated with anti‐H3 antibody (Cell Signal Technology; #13998) at 4°C overnight. When incubation finished, cells were washed five times with TBST and Cy3‐labeled goat anti‐rabbit IgG (Beyotime; #A0516) and DAPI solution (Solarbio) were added. After 1 h incubation and washing five times with TBST, cells were captured with Leica TCS SP8 super‐resolution laser scanning confocal microscope. The colocalization of ac‐H3 and DAPI was analyzed with ImageJ.

For O=C(CCCCCCNC(=O)c1cc(OCCc2ccccc2)c2ccccc2n1)NO [SDFZ-8], the IC50 (HeLa nuclear extract; mean ± SD of three determinations, read-out: HDAC inhibitory activity IC50 (HeLa extract)) was 10 nM, the “HDAC inhibitory activity surpassing LBH-589” value (HeLa nuclear extract; versus LBH-589) was 2.5 fold and the “HDAC inhibitory activity surpassing SAHA” value (HeLa nuclear extract; versus SAHA) was 28.6 fold. For the same molecule, the IC50 (HDAC11) was > 10 µM, the IC50 (AGS) was 560 ± 20 nM and the IC50 (HL-60) was 94 ± 4 nM. For the same molecule, the IC50 (Jurkat) was 89 ± 1 nM, the IC50 (KM3) was 100 ± 5 nM and the IC50 (MCF-7) was 1960 ± 60 nM. It also gave an IC50 (NCI-H929) of 100 ± 5 nM, an IC50 (PC-3) of 620 ± 70 nM and an IC50 (RPMI-8226) of 460 ± 30 nM. For the same molecule, the half-life ([1]; mouse liver microsomes, read-out: half-life T 1/2 in mouse liver microsomes) was 12.3 min, the microsomal CLint ([1]; mouse, microsomes) was 56.3 µL/min/mg and the “immunofluorescence intensities of ac-H3” value (MDA-MB-231 cells) was “notably stronger than those of cells treated with SAHA”.
